Read-outs that look alike come from different tables or passages of the source.
Tests used:
H460 cell line = assay: In vitro cell proliferation inhibition with the drug combination (CTG method); assay type: cell-based, human; conditions: for IC50: Homo sapiens
Method: • a) H460 cells (human non-small lung cancer cells, AKR1C3 enzyme highly expressed) were cultured in RPMI-1640 medium, added with 10% FBS and 1% double antibody, and placed at 37° C. and 5% CO2 for culturing.
• a) The cells were routinely cultured until the cell saturation was 80%-90%, and when the required quantity was reached, the cells were collected. • b) The cells were resuspended with the corresponding medium and cell counts were performed to prepare a cell suspension with appropriate density. • c) The cell suspension was added to a 96-well plate with 100 μL per well, and the cell density was 2,000 cells per well. • d) The cells were incubated overnight in an incubator at 37° C. with 5% CO2. 1.1.3 Treating Cells with Compound (72 Hours)
AST-3424 alone: after 24 hours of cell seeding, AST-3424 was administered alone. Specifically, each well was supplemented with 99 μL of growth medium, and then added with 1 μL of the prepared AST-3424 solution to form different concentrations of AST-3424. The plate was shaken gently to ensure uniform mixing, and placed in an incubator at 37° C. with 5% CO2.
The cell plates were placed in the incubator for 72 hours.
1.1.4 Treating Cells with Compound (2 Hours) • a) Administrating single drug: after 24 hours of cell seeding, AST-3424 was administered alone. Specifically, each well was supplemented with 99 μL of growth medium, and then added with 1 μL of the prepared AST-3424 solution to form different concentrations of AST-3424. The plate was shaken gently to ensure uniform mixing, and placed in the incubator for 2 hours. […] The plate was shaken gently to ensure uniform mixing. After the plate was placed in the incubator for 2 hours, 1 μL of the prepared AST-3424 solution was added to form different concentrations of AST-3424. The plate was shaken gently to ensure uniform mixing, and placed in the incubator at 37° C. with 5% CO2 for another 2 hours. Then, the supernatant was discarded, and the remainder was washed twice with growth medium and added with 200 μL of fresh medium.
1.1.6 Detecting with CTG Method • a) The cell plate to be tested was placed at room temperature to equilibrium for 30 minutes, and 100 μL of culture medium was discarded from each well. • b) 25 μL CTG reagent (CelltiterGlo kit) was added to each well. The plate was placed on a fast shaker to shake for 2 minutes, and then placed at room temperature away from light for 30 minutes. • c) The chemiluminescent signal value was read with multifunctional microplate reader at reading time of 1000 ms.
IC50 was calculated with GraphPad Prism 5 software, and the IC50 (half maximal inhibitory concentration) of the compound was obtained using the following nonlinear fitting formula: […]

[1] = cited from earlier work; for AUC0-t / CL (L/h/m^2) / Cmax / T1/2 / Tmax / Vdss (L/m^2): patients, mean
[2] = Body weight / tolerance of mice in the human lung cancer NCI-H460 model
Method: BALB/c nude mice were subcutaneously inoculated with human lung cancer NCI-H460 cells to establish the subcutaneous transplant tumor model of human lung cancer. The experiment was assigned to seven groups, with 5 mice in each group: the test drug Celecoxib 50 mg/kg and 100 mg/kg groups, the AST-3424 2.5 mg/kg group, and different combination therapy groups of Celecoxib 50 mg/kg or 100 mg/kg and AST-3424 2.5 mg/kg, and the 0.5% sodium carboxymethylcellulose vehicle control group. […] The AST-3424 2.5 mg/kg group was administered by tail vein injection once a week for a total of three weeks, and observed for 7 days. In the combination therapy groups of Celecoxib 50 mg/kg or 100 mg/kg and AST-3424 2.5 mg/kg, Celecoxib was administered by gavage once a day for a total of 15 days, and AST-3424 was administered by tail vein injection once a week for a total of three weeks, and observed for 7 days.

[3] = system: human lung cancer NCI-H460; assay: Pharmacodynamics in subcutaneous xenograft model of human lung cancer NCI-H460 (tumor volume, TGI); assay type: in vivo, BALB/c nude mice; conditions: Group 7: AST-3424 2.5 mg/kg QW×3 i.v.
Method: Measures of pharmacodynamics of AST-3424 monotherapy and combination therapy with Celecoxib were performed in a subcutaneous xenograft model of human lung cancer NCI-H460 established by using female BALB/c nude mice.
After the inoculation of tumor cell, tumor growth was routinely monitored, and tumor volume and mouse weight were measured. Evaluation of therapeutic efficiency was based on the relative tumor growth inhibition TGI (%). The specific results are shown in Table 3 and FIG. 3, and the Pharmacodynamics analysis data on Day 30 after inoculation (at the end of drug administration) are particularly given in Table 4.

[4] = OBI-3424 dose level 1 mg/m^2, infusion
[5] = OBI-3424 dose level 2 mg/m^2, infusion
[6] = OBI-3424 dose level 4 mg/m^2, infusion
[7] = OBI-3424 dose level 6 mg/m^2, infusion
[8] = OBI-3424 dose level 8 mg/m^2, infusion
[9] = OBI-3424 dose level 10 mg/m^2, infusion
[10] = OBI-3424 dose level 12 mg/m^2, infusion
[11] = OBI-3424 dose level 14 mg/m^2, infusion
[12] = Group 7: AST-3424 2.5 mg/kg QW×3 i.v., Day 37 after the inoculation of tumor cell

## C[C@H](OP(=O)(N1CC1)N1CC1)c1ccc([N+](=O)[O-])c(Oc2cccc(C(=O)N(C)C)c2)c1 [AST-3424]
H460 cell line; NCI-H460, AST-3424 alone, read-out: IC50(nM) -TH-3021
  IC50: 0.97 nM
H460 cell line; NCI-H460, read-out: IC50(nM) +3 μM TH-3021, +3 μM TH-3021 (2 h pre-incubation, then 2 h with AST-3424)
  IC50: 360 nM
H460 cell line; IC50 +3 μM TH-3021 vs AST-3424 alone
  Inhibition factor: 371.65
[1]; [4]
  AUC0-t: 217.10 ng·h/mL
  CL (L/h/m^2): 4.74 L/h/m^2
  Cmax: 289.30 ng/mL
  T1/2: 17.4 min
  Tmax: 27.6 min
  Vdss (L/m^2): 2.45 L/m^2
[1]; [5]
  AUC0-t: 298.00 ng·h/mL
  CL (L/h/m^2): 8.85 L/h/m^2
  Cmax: 375.80 ng/mL
  T1/2: 18.6 min
  Tmax: 30 min
  Vdss (L/m^2): 4.13 L/m^2
[1]; [6]
  AUC0-t: 650.90 ng·h/mL
  CL (L/h/m^2): 7.74 L/h/m^2
  Cmax: 803.50 ng/mL
  T1/2: 12.6 min
  Tmax: 19.8 min
  Vdss (L/m^2): 2.68 L/m^2
[1]; [7]
  AUC0-t: 1278.10 ng·h/mL
  CL (L/h/m^2): 4.84 L/h/m^2
  Cmax: 1360.30 ng/mL
  T1/2: 44.4 min
  Tmax: 30 min
  Vdss (L/m^2): 3.72 L/m^2
[1]; [8]
  AUC0-t: 1678.40 ng·h/mL
  CL (L/h/m^2): 6.53 L/h/m^2
  Cmax: 1613.10 ng/mL
  T1/2: 40.2 min
  Tmax: 25.2 min
  Vdss (L/m^2): 3.97 L/m^2
[1]; [9]
  AUC0-t: 2037.00 ng·h/mL
  CL (L/h/m^2): 4.92 L/h/m^2
  Cmax: 2654.70 ng/mL
  T1/2: 34.2 min
  Tmax: 30 min
  Vdss (L/m^2): 3.06 L/m^2
[1]; [10]
  AUC0-t: 2159.40 ng·h/mL
  CL (L/h/m^2): 8.20 L/h/m^2
  Cmax: 2481.90 ng/mL
  T1/2: 33 min
  Tmax: 26.4 min
  Vdss (L/m^2): 4.33 L/m^2
[1]; [11]
  AUC0-t: 2131.80 ng·h/mL
  CL (L/h/m^2): 8.49 L/h/m^2
  Cmax: 2619.20 ng/mL
  T1/2: 33 min
  Tmax: 25.2 min
  Vdss (L/m^2): 4.31 L/m^2
[1]; between the two doses (Cycle 1 Day1 and Cycle 1 Day8)
  accumulation of exposure (Cmax and AUC): no accumulation of exposure
[2]; Group 7: AST-3424 2.5 mg/kg QW×3 i.v., Day 9 after the inoculation of tumor cell
  Mean body weight g (x ± S): 25.6 ± 0.7 g
[2]; [12]
  Change of body weight (%): −11.74%
  Mean body weight g (x ± S): 22.5 ± 0.5 g
[2]; NCI-H460 model
  tolerance of mice: good tolerance
[3]; Day 9 after cell inoculation
  Tumor volume (x ± S): 144.01 ± 11.36 mm^3
[3]; Day 12 after cell inoculation
  Tumor volume (x ± S): 164.28 ± 17.97 mm^3
[3]; Day 16 after cell inoculation
  Tumor volume (x ± S): 166.22 ± 18.81 mm^3
[3]; Day 19 after cell inoculation
  Tumor volume (x ± S): 209.80 ± 41.43 mm^3
[3]; Day 23 after cell inoculation
  Tumor volume (x ± S): 208.60 ± 43.27 mm^3
[3]; Day 26 after cell inoculation
  Tumor volume (x ± S): 291.82 ± 67.06 mm^3
[3]; Day 30 after cell inoculation
  Tumor volume (x ± S): 327.47 ± 85.10 mm^3
[3]; Day 30 after inoculation
  Relative tumor volume (x ± S): 2.19 ± 0.41
  T/C (%): 39.25%
[3]; Day 30 after inoculation, 2.5 mg/kg
  TGI (%): 60.75%
[3]; Day 30 after inoculation, in mm³
  Tumor volume (x ± S): 327.47 ± 85.10
[3]; Day 33 after cell inoculation
  Tumor volume (x ± S): 348.83 ± 90.34 mm^3
[3]; Day 37 after cell inoculation
  Tumor volume (x ± S): 439.52 ± 142.78 mm^3

— US20260130928A1, “COMBINATION OF AKR1C3 ACTIVATED ANTICANCER PRODRUG COMPOUND AND ANALGESIC DRUG FOR TREATING CANCER PATIENTS ACCOMPANIED BY PAIN” (ASCENTAWITS PHARMACEUTICALS, LTD., priority 2022, published 2026)
